Patent US7351728B2, “Oxazolyl-aryloxyacetic acid derivatives and their use as PPAR agonists” (Eli Lilly and Company, priority 2003, dated 2008)

Assays:
HuapoAI transgenic mice = experiment: Evaluation of triglyceride and cholesterol level in HuapoAI transgenic mice; assay type: in vivo; details: Mus musculus, 168 h, 30 mg/kg daily oral gavage 7 days
Procedure: Five to six week old male mice, transgenic for human apoAI [C57Bl/6-tgn(apoa1)lrub, Jackson Laboratory, Bar Harbor, Me.] were housed five per cage (10″×20″×8″ with aspen chip bedding) with food (Purina 5001) and water available at all times. After an acclimation period of 2 weeks, animals were individually identified by ear notches, weighed, and assigned to groups based on body weight. Beginning the following morning, mice were dosed daily by oral gavage for 7 days using a 20 gauge, 1½″ curved disposable feeding needle (Popper & Sons). Treatments were test compounds (30 mg/kg), a positive control (fenofibrate, 100 mg/kg) or vehicle [1% carboxymethylcellulose (w/v)/0.25% Tween80 (w/v); 0.2 ml/mouse]. Prior to termination on day 7, mice were weighed and dosed. Three hours after dosing, animals were anesthetized by inhalation of isoflurane (2-4%; Abbott Laboratories, Chicago, Ill.) and blood obtained via cardiac puncture (0.7-1.0 ml). Whole blood was transferred to serum separator tubes (Vacutainer SST), chilled on ice, and permitted to clot. Serum was obtained after centrifugation at 4° C. and frozen until analysis for triglycerides, total cholesterol, compound levels, and serum lipoprotein profile by fast protein liquid chromatography (FPLC) coupled to an inline detection system. After sacrifice by cervical dislocation, the liver, heart and epididymal fat pads were excised and weighed.
The animals dosed with vehicle had average triglycerides values of 60-80 mg/dl, which were reduced by the positive control fenofibrate (33-58 mg/dl with a mean reduction of 37%). The animals dosed with vehicle had average total serum cholesterol values of 140-180 mg/dl, which were increased by fenofibrate (190-280 mg/dl, with a mean elevation of 41%). […] Fenofibrate increased the amount of HDLc (68-96 v-sec with a mean percent increase of 48%).
Glucose was measured colorimetrically using commercially purchased reagents (Sigma #315-500). According to the manufacturers, the procedures were modified from published work (McGowan, M. W., Artiss, J. D., Strandbergh, D. R. & Zak, B. Clin Chem, 20:470-5 (1974) and Keston, A. Specific colorimetric enzymatic analytical reagents for glucose. Abstract of papers 129th Meeting ACS, 31C (1956).); and depend on the release of a mole of hydrogen peroxide for each mole of analyte, coupled with a color reaction first described by Trinder (Trinder, P. Determination of glucose in blood using glucose oxidase with an alternative oxygen acceptor. Ann Clin Biochem, 6:24 (1969)). The absorbance of the dye produced is linearly related to the analyte in the sample. The assays were further modified in our laboratory for use in a 96 well format. Standards (Sigma #339-11, Sigma #16-11, and Sigma #CC0534 for glucose triglycerides and total cholesterol, respectively), quality control plasma (Sigma # A2034), and samples (2 or 5 μl/well) were measured in duplicate using 200 μl of reagent. An additional aliquot of sample, pipetted to a third well and diluted in 200 μl water, provided a blank for each specimen. Plates were incubated at room temperature (18, 15, and 10 minutes for glucose, triglycerides and total cholesterol, respectively) on a plate shaker (DPC Micormix 5) and absorbance read at 500 nm (glucose and total cholesterol) or 540 nm (triglycerides) on a plate reader (Wallac Victor 1420). Sample absorbances were compared to a standard curve (100-800, 10-500, and 100-400 mg/dl for glucose, triglycerides and total cholesterol, respectively). Values for the quality control sample were always within the expected range and the coefficient of variation for samples was below 10%. All samples from an experiment were assayed at the same time to minimize inter-assay variability.
Serum lipoproteins were separated and cholesterol quantitated with an in-line detection system. Sample was applied to a Superose® 6 HR 10/30 size exclusion column (Amersham Pharmacia Biotech) and eluted with phosphate buffered saline-EDTA at 0.5 ml/min. […]

Compound	melting point [°C]	change in vivo at 30 mg/kg (HuapoAI transgenic mice; percent increase in FPLC HDLc area under the curve) [%]	inhibition in vivo at 30 mg/kg (HuapoAI transgenic mice; serum, male human apoAI transgenic mice, read-out: % Triglyceride Reduction) [%]
C=Cc1cccc(-c2nc(CCOc3ccc(OC(C)(C)C(=O)O)cc3)c(C)o2)c1 [Example 10A, 2-Methyl-2-(4-{2-[5-methyl-2-(3-vinylphenyl)oxazol-4-yl]ethoxy}phenoxy)propionic acid]	137 to 139	–	–
C#Cc1ccc(-c2nc(CCOc3ccc(OC(C)(C)C(=O)O)cc3)c(C)o2)cc1 [Example 11, 2-(4-{2-[2-(4-Ethynylphenyl)-5-methyloxazol-4-yl]ethoxy}phenoxy)-2-methylpropionic acid]	137 to 139	–	–
Cc1oc(-c2ccc(C(N)=O)cc2)nc1CCOc1ccc(OC(C)(C)C(=O)O)cc1 [Example 14, 2-(4-{2-[2-(4-Carbamoylphenyl)-5-methyloxazol-4-yl]ethoxy}phenoxy)-2-methylpropionic acid]	126 to 127	–	–
Cc1cc(OCCc2nc(-c3ccccc3)oc2C)ccc1OCC(=O)O [Example 25, {2-Methyl-4-[2-(5-methyl-2-phenyloxazol-4-yl)ethoxy]phenoxy}acetic acid]	133	–	–

Further lines, with some results ahead:

melting point [°C]	Compound	change in vivo at 30 mg/kg (HuapoAI transgenic mice; percent increase in FPLC HDLc area under the curve) [%]	inhibition in vivo at 30 mg/kg (HuapoAI transgenic mice; serum, male human apoAI transgenic mice, read-out: % Triglyceride Reduction) [%]
199 to 200	CC(C)(Oc1ccc(OCCc2coc(-c3ccccc3)n2)cc1)C(=O)[O-].[Na+] [Example 3, Sodium 2-methyl-2-{4-[2-(2-phenyloxazol-4-yl)ethoxy]phenoxy}propionate]	63	66
140 to 141	Cc1oc(-c2ccccc2)nc1CCOc1cccc(OC(C)(C)C(=O)O)c1 [Example 23, 2-methyl-2-{3-[2-(5-methyl-2-phenyloxazol-4-yl)ethoxy]phenoxy}propionic acid]	–	–
163.5	Cc1sc(-c2ccccc2)nc1CCOc1ccc(OC(C)(C)C(=O)O)cc1 [Example 35, 2-Methyl-2-{4-[2-(5-methyl-2-phenyl-thiazol-4-yl)-ethoxy]phenoxy}-2-methyl-propionic acid]	–	–
